We go through one molecule from publication PMC6934184, “Selective DNA-PKcs inhibition extends the therapeutic index of localized radiotherapy and chemotherapy” (The Journal of Clinical Investigation, 2019).

This test deals with T1, LCK (Homo sapiens, UniProt P06239).
T1 construct: purchased Thermo Fisher Scientific (Life Technologies) SelectScreen
As to the kind of experiment: SelectScreen Z'LYTE. Format: biochemical. The method, boiled down: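 Percent values come from Thermo SelectScreen profiling of NU5455, combining activity and binding assays. CSF1R was run in Z'LYTE format at Km app ATP, and CAMK1 in Adapta format with ATP listed at 10.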

SMILES strings stand for the structures.

T1 sequence (P06239 whole entry): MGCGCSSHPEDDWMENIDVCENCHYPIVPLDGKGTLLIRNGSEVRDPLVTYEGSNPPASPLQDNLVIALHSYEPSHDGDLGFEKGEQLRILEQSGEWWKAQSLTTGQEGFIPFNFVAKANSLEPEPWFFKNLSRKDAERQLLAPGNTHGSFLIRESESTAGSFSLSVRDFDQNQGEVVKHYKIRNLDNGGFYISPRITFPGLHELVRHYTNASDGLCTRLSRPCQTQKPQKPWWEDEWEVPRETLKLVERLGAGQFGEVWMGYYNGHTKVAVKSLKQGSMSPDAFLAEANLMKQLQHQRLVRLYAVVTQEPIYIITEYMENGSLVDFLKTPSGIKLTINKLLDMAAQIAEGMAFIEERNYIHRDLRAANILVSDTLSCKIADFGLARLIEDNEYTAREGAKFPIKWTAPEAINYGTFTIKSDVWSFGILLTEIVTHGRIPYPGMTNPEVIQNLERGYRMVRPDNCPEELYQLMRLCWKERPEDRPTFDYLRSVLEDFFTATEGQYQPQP

`CN(C(=O)CN1CCOCC1)c1ccc2sc3c(-c4cccc5c(=O)cc(N6CC7CCC(C6)O7)oc45)cccc3c2c1` [NU5455] displayed an inhibition at 1 µM of 9.6%.
